How the values were obtained:
Assay in all cases: relative viability (nuclei count vs DMSO), 5 days (fraction); higher = more cells survive
[1] = compound: C[C@@H](C(=O)N[C@@H](C1CCCCC1)C(=O)N2CCC[C@H]2C(=O)N[C@@H]3[C@@H](CC4=CC=CC=C34)OCC#CC#CCO[C@@H]5CC6=CC=CC=C6[C@@H]5NC(=O)[C@@H]7CCCN7C(=O)[C@H](C8CCCCC8)NC(=O)[C@H](C)NC)NC [AZD5582] + CS(=O)(=O)CCNCc1ccc(-c2ccc3ncnc(Nc4ccc(OCc5cccc(F)c5)c(Cl)c4)c3c2)o1 [Lapatinib] (partner 2 µM)
Outline: (§1)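 Lung cancer cell lines were seeded in 1536-well plates and dosed by pin tool the next day, with either a single drug or a fixed anchor-drug dose combined with five library-drug doses (not always all listed) spaced in √10 steps. Five days later, one step fixed the cells and stained their nuclei (final 0.05% Triton X-100, 1% formaldehyde, 1 ug/ml Hoechst), and nuclei were counted on 4× images. Relative viability is the nuclei count in treated wells divided by the count in vehicle wells, and each value is the median of duplicate plates.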

[2] = compound: C[C@@H](C(=O)N[C@@H](C1CCCCC1)C(=O)N2CCC[C@H]2C(=O)N[C@@H]3[C@@H](CC4=CC=CC=C34)OCC#CC#CCO[C@@H]5CC6=CC=CC=C6[C@@H]5NC(=O)[C@@H]7CCCN7C(=O)[C@H](C8CCCCC8)NC(=O)[C@H](C)NC)NC [AZD5582] + C[C@]1(O)C[C@@H](c2nc(-c3ccc4ccc(-c5ccccc5)nc4c3)c3c(N)nccn32)C1 [Linsitinib] (partner 1 µM)
Outline: as §1

[3] = compound: C[C@@H](C(=O)N[C@@H](C1CCCCC1)C(=O)N2CCC[C@H]2C(=O)N[C@@H]3[C@@H](CC4=CC=CC=C34)OCC#CC#CCO[C@@H]5CC6=CC=CC=C6[C@@H]5NC(=O)[C@@H]7CCCN7C(=O)[C@H](C8CCCCC8)NC(=O)[C@H](C)NC)NC [AZD5582] + Cc1cc(Nc2cc(N3CCN(C)CC3)nc(Sc3ccc(NC(=O)C4CC4)cc3)n2)n[nH]1 [Tozasertib] (partner 0.1 µM)
Outline: as §1

[4] = compound: C[C@@H](C(=O)N[C@@H](C1CCCCC1)C(=O)N2CCC[C@H]2C(=O)N[C@@H]3[C@@H](CC4=CC=CC=C34)OCC#CC#CCO[C@@H]5CC6=CC=CC=C6[C@@H]5NC(=O)[C@@H]7CCCN7C(=O)[C@H](C8CCCCC8)NC(=O)[C@H](C)NC)NC [AZD5582] + O=C(c1cc(Cc2n[nH]c(=O)c3ccccc23)ccc1F)N1CCN(C(=O)C2CC2)CC1 [Olaparib] (partner 8 µM)
Outline: as §1

[5] = compound: C[C@@H](C(=O)N[C@@H](C1CCCCC1)C(=O)N2CCC[C@H]2C(=O)N[C@@H]3[C@@H](CC4=CC=CC=C34)OCC#CC#CCO[C@@H]5CC6=CC=CC=C6[C@@H]5NC(=O)[C@@H]7CCCN7C(=O)[C@H](C8CCCCC8)NC(=O)[C@H](C)NC)NC [AZD5582] + CC(C)C[C@H](NC(=O)[C@H](Cc1ccccc1)NC(=O)c1cnccn1)B(O)O [Bortezomib] (partner 0.002 µM)
Outline: as §1

Row | Cell Line | relative viability ([1]; first compound 0.001581 µM) | relative viability ([1]; first compound 0.005 µM) | relative viability ([1]; first compound 0.05 µM) | relative viability ([2]; first compound 0.001581 µM) | relative viability ([2]; first compound 0.005 µM) | relative viability ([2]; first compound 0.05 µM) | relative viability ([3]; first compound 0.001581 µM) | relative viability ([3]; first compound 0.005 µM) | relative viability ([3]; first compound 0.01581 µM) | relative viability ([3]; first compound 0.05 µM) | relative viability ([4]; first compound 0.001581 µM) | relative viability ([4]; first compound 0.005 µM) | relative viability ([4]; first compound 0.05 µM) | relative viability ([4]; first compound 0.01581 µM) | relative viability ([5]; first compound 0.001581 µM) | relative viability ([5]; first compound 0.005 µM) | relative viability ([5]; first compound 0.01581 µM) | relative viability ([5]; first compound 0.05 µM) | relative viability ([1]; first compound 0.01581 µM) | relative viability ([2]; first compound 0.01581 µM)
1 | NCI-H1395 | 1.08 | 1.07 | 1.13 | 1.05 | 1.03 | 1.11 | 0.703 | 0.714 | 0.81 | 0.797 | 0.445 | 0.433 | 0.464 | – | – | – | – | – | – | –
2 | SW 900 | – | – | – | – | – | – | 0.481 | 0.365 | 0.722 | 0.468 | 0.667 | 0.656 | 0.495 | 0.79 | – | – | – | – | – | –
3 | NCI-H1650 | 0.587 | 0.832 | 0.37 | – | – | – | 0.358 | 0.326 | 0.389 | 0.304 | 0.758 | 0.668 | 0.834 | 0.813 | 0.166 | 0.192 | 0.188 | 0.169 | 0.581 | –
4 | Calu-6 | 0.626 | 0.662 | 0.568 | 0.811 | – | 0.768 | – | – | – | – | 0.489 | – | 0.258 | 0.629 | 0.917 | 0.813 | 0.988 | 0.551 | 1.14 | 0.985
5 | NCI-H1623 | – | – | – | – | – | – | 0.441 | 0.455 | 0.444 | 0.432 | – | – | – | – | – | – | – | – | – | –
6 | LCLC-103H | – | – | – | 1.06 | 1.33 | 1.19 | 0.377 | 0.409 | 0.455 | 0.315 | 0.806 | 0.836 | 0.862 | 0.714 | 0.972 | 1.14 | 0.958 | 1 | – | 1
7 | NCI-H358 | 0.484 | 0.566 | 0.452 | 0.817 | 0.998 | 0.847 | 0.126 | 0.109 | 0.102 | 0.101 | 0.56 | 0.702 | 0.791 | 0.616 | – | – | – | – | 0.477 | 0.899
8 | NCI-H1563 | 0.909 | 1.15 | 1.64 | 1.23 | 1.18 | 1.15 | – | – | – | – | – | – | – | – | 0.765 | 0.887 | 0.788 | 1.25 | 0.788 | 1.24
9 | SK-MES-1 | 0.492 | 0.648 | 0.571 | 1.1 | 1.16 | 1.17 | 0.771 | 0.785 | 0.888 | 0.805 | 0.653 | 0.515 | 0.605 | 0.792 | – | – | – | – | 0.455 | 1.04
10 | NCI-H2170 | 0.278 | 0.288 | 0.274 | – | – | – | 0.647 | 0.716 | 0.746 | 0.829 | 0.561 | 0.543 | 0.688 | 0.628 | – | – | – | – | 0.293 | –
11 | NCI-H1944 | 0.767 | 0.961 | 0.882 | 1.15 | 1.4 | 1.44 | 0.226 | 0.25 | 0.266 | 0.297 | 0.379 | 0.403 | 0.446 | 0.365 | – | – | – | – | 0.82 | 1.21
12 | NCI-H1299 | 0.846 | 0.883 | 0.812 | 0.93 | 1.04 | 0.97 | – | – | – | – | 0.943 | 0.965 | 0.931 | 0.963 | 1.01 | 1.08 | 1.04 | 0.99 | 0.971 | 1.01
13 | EBC-1 | 0.187 | 0.226 | 0.255 | 0.828 | 0.939 | 1.03 | – | – | – | – | 0.646 | 0.707 | 0.571 | 0.639 | 0.434 | 0.39 | 0.528 | 0.389 | 0.193 | 0.883
14 | A549 | 0.896 | 0.983 | 0.851 | 0.545 | 0.768 | 0.726 | – | – | – | – | 0.283 | 0.301 | 0.36 | 0.292 | – | – | – | – | 0.898 | 0.444
15 | LK-2 | 0.654 | 1.03 | 0.952 | – | 0.685 | 0.795 | 0.161 | 0.174 | 0.149 | 0.182 | 0.63 | 0.702 | 0.675 | 0.772 | – | – | – | – | 0.965 | 0.643
16 | NCI-H441 | – | – | – | 0.453 | 0.53 | 0.389 | 0.581 | 0.653 | – | 0.587 | 0.504 | 0.541 | 0.395 | 0.603 | 0.379 | 0.495 | 0.47 | 0.418 | – | 0.454
17 | NCI-H1793 | 0.777 | 0.898 | 0.838 | 0.816 | 1.01 | 1.11 | 0.241 | 0.486 | 0.303 | 0.454 | 0.674 | 1.08 | 1.23 | 0.75 | – | – | – | – | 0.592 | 0.752
18 | NCI-H522 | – | – | – | – | – | – | 0.592 | 0.491 | 0.594 | 0.524 | 0.554 | 0.628 | 0.674 | 0.641 | – | – | – | – | – | –
19 | NCI-H1792 | 0.862 | 0.935 | 1.01 | 0.49 | 0.588 | 0.792 | – | – | – | – | 0.343 | 0.466 | 0.409 | 0.337 | 0.92 | 1.02 | 0.892 | 1.22 | 0.798 | 0.516

From the supplement of paper PMC10307832
